The values that follow come from patent US20110236393A1, “MONOCLONAL ANTIBODY PRODUCTION IN B CELLS AND USES THEROF” (Duke University, priority 2008, published 2011).

Experiment [1] concerns PBMC infected with EBV (B95-8). Description: EBV transformation efficiency (EBV-induced LCL outgrowth following PBMC infection). In kind it is cell-based, human. The settings on record: for increase of EBV-mediated transformation efficiency: relative to DMSO (set to 1), LCL positive wells at six weeks post infection. On the procedure: FIGS. 3A and 3B are graphical plots showing the inhibition of ATM and Chk2 kinases increased EBV transformation efficiency. […] The percentages of wells positive for LCLs at six weeks post infection were plotted relative to the amount of B95-8 virus used per well. The efficiency of transformation was determined by the amount of virus necessary to induce 63% positive wells as indicated by a Poisson's distribution. This value was set to 1 for the DMSO treated infections. The difference between DMSO and 5 μM ATMi treated infections was ˜30-fold increased efficiency in the presence of 5 μM ATMi. In FIG. 3B similar experiments were performed using DMSO (diamond), 2 μM Chk2i II (square), or 5 μM Chk2i II (triangle).
Methods of infecting B cells with EBV are known to those of skill in the art. In some embodiments B cells can be infected with EBV as disclosed in the Examples below. In some embodiments primary human peripheral blood mononuclear cells (PBMCs) can be infected with the EBV strain B95-8 with dilutions starting from a multiplicity of infection such that all B cells express the EBV latent gene expression program (approximately 100 particles/cell) through a dilution where no LCLs grow out. Culturing of the EBV-infected cells in RPMI 1640, 10% FCS, antibiotics, and in the presence of cyclosporine to suppress T cell activity, allows for the outgrowth of LCLs at approximately 1-5% efficiency (transformant/infected cell) within 5 weeks. Scoring of LCL outgrowth can be performed using techniques and analytical equipment as is know to those of skill in the art. By way of example and not limitation, scoring of LCL outgrowth can be performed using a Cellomics Vti Array Scan instrument (ThermoFisher Scientific, Waltham, Mass., United States of America) following Calcein-AM live cell fluorescent staining, which allows for an unbiased readout of LCL outgrowth. […]
Likewise, the downstream ATM target, Chk2, was evaluated for its ability to inhibition EBV-mediated proliferation of B cells. […]

Experiment [2] deals with CD19+ B cells of CFSE-stained PBMC. The experiment in a line: CFSE/CD19 B cell proliferation after EBV infection of PBMC. As to conditions: for B cell proliferation in the absence of EBV: 5 μM, no EBV, six days post treatment; for B-cell proliferation (CD19+/CFSElo cells of total PBMCs): EBV infection in presence of 1, 2, 5, 10 μM inhibitor, 14 days post infection. In kind it is cell-based, human. An excerpt:
FIGS. 4A, 4B and 4C show inhibition of ATM or Chk2 increased the proliferation of B cells following EBV infection. FIG. 4A is a dot plot of EBV-mediated proliferation following infection of CFSE-stained PBMC, detected by FACS using CD19-PE staining of B cells and CFSE to monitor cell divisions, at 2 and 6 days post infection. At day 2 post infection there was little proliferation, while by day 6 there was clear B cell proliferation induced by the virus. FIG. 4B is a histogram illustrating the effect of CFSE-stained PBMC infected with EBV in the presence of increasing amounts of ATMi or Chk2i (0.1% DMSO, 1 μM, 2 μM, 5 μM, and 10 μM). The percentage of CD19+/CFSElo cells of total PBMCs at 14 days post infection are plotted. The data shown are the average values from two different normal donors with error bars reflecting the standard error. […] FIG. 4C includes dot plots of the proliferation of CFSE-stained PBMC treated with DMSO, 5 μM ATMi, 5 μM Chk21, or infected with EBV. Six days post treatment/infection cells were stained with CD19-PE antibody and proliferation of B cells was assessed. […] The difference in relative B cell proliferation at day six between FIGS. 4A and 4C was due to normal donor variation.
To further characterize the ATM- and Chk2-dependent block to EBV-mediated transformation, B cell proliferation early after infection was analyzed. PBMC were infected and B cell proliferation was followed over time using the fluorescent dye CFSE and CD19 staining of B cells. CFSE staining assays proliferation as its fluorescence is halved in daughter cells. PBMC were stained with the cell permeable dye carboxyfluorescein succinimidyl ester (CFSE). This dye enters the cytoplasm and is cleaved to fluoresce immediately by intracellular esterases. The dye is maintained in cells at a concentration that divides by half with each cell division. Thus, each two-fold reduction of CFSE fluorescence readout by flow cytometry correlates with one cycle of proliferation. CFSE-labeled PBMC were infected with EBV and B cell proliferation was monitored by CD19-PE or APC labeling cells at different days after infection. Flow cytometry was used to analyze the CD19 and CFSE levels in gated live cells (by forward versus side scatter). The percentage of CD19+ cells that have proliferated (CFSElo) relative to total PBMC cell numbers were plotted to indicate a relative proliferation index in panel B of FIG. 4. Using the CD19 marker and CFSE the proliferation of B cells during the early stages of transformation were specifically followed (FIG. 4A).
The above experiments were followed with washout and time of addition experiments using either ATM or Chk2 inhibitor. EBV-infected B cells were determined to be sensitive to the inhibitors between 4 and 8 days after infection. […]

The test system of experiment [3] is IgG+ memory B cells infected with EBV B95-8. The experiment in a line: Outgrowth of EBV-infected IgG+ memory B cells (positive wells at 4 weeks). In kind it is cell-based, human. As to conditions: EBV B95-8 MOI 5, CpG 2.5 μg/mL, Chk2i 5 μM, 1,000 and 300 cells per well. An excerpt:
This Example pertains to the evaluation of whether inhibition of the DDR, in particular Chk2, is capable of increasing the efficiency of EBV transformation of memory B cells and whether the frequency of antibody secreting cells will increase. As a positive control, CpG 2006 TLR9 agonist was included either alone or together with Chk21. The CpG employed was CpG 2006 (Hartmann and Krieg, The Journal of Immunology, 2000, 164: 944-952.). The Chk2i employed was Chk2i II (Arienti et al., 2005 J. Med Chem 48:1873-1875).
Normal donor peripheral blood mononuclear cells (PBMC) were sorted to >95% pure IgG+ memory B cells using a scheme of positive selection for CD19 and CD27 and negative selection of IgM, IgD, and IgA. Cells were then infected with EBV B95-8 strain at an MOI of 5 and either DMSO, CpG (2.5 μg/mL), Chk2i (5 μM), or CpG +Chk21. Cells were seeded in 96-well plates with 50,000 lethally irradiated J774A.1 cells at different amounts. […] Wells were analyzed at 4 weeks for outgrowth and positive wells are plotted as a percentage for each condition. […] These were measured by IgG-specific ELISA.

The subject of a further experiment is CD19+ B cells. The experiment in a line: B cell number after mitogen stimulation (flow cytometry count). The settings on record: 5 μM Chk2i II vs DMSO, different time points. In kind it is cell-based, human. Here is the method:
FIG. 11 is bar graph showing that Chk2 […] the total B cell number following CpG treatment or EBV infection. PBMC were stimulated with CpG 2006 (2.5 μg/mL) or infected with EBV (B95-8, MOI 5). CD19+ B cells were assayed 7 days after treatment of infection using flow cytometry. The total number of viable CD19+ B cells is plotted.
FIG. 12 is a histogram showing that Chk2 inhibition increased B cell number following CpG or CpG system stimulation. Cells were assayed at different time points after stimulation. Circles are CpG treated samples and squares are CpG system treated samples. Open symbols are DMSO-treated and closed symbols are Chk21-treated.
Inhibition of the DDR increased B Cell proliferation in response to mitogens This Example pertains to inhibition of the DDR signaling pathway as a means to increase B cell mitogen induced proliferation. In FIG. 11 inhibition of Chk2 increased the number of B cells proliferating following either CpG DNA treatment or EBV infection as B cell mitogens. […] Total B cell number refers to CD19+ cells gated for viability using forward and side scatter and normalized to polystyrene beads.
The proliferation of cells in response to a combination of mitogenic signals was also assayed in the presence of a DNA damage response inhibitor. […] Cells were counted at different time points using the assay described in Example 10. […]
A general note: Flow cytometry measures light scatter and fluorescence of single cells or particles in a stream.

Experiment [4] has as its system memory B cells from chronic HIV-1-infected patients. The experiment in a line: Frequency of IgG positive cell clones of EBV transformed memory B cells. In kind it is cell-based, human. As to conditions: EBV transformation in presence vs absence of Chk2i II. An excerpt:
FIG. 13 is a scatter plot of the frequency of IgG positive cell clones of EBV transformed memory B cells from chronic HIV-1-infected patients in the presence or absence of Chk2i II. An increase in the frequency of IgG positive cell clones in the presence of Chk2i II was observed.
Identification of a HIV-Specific Neutralizing Antibody Following EBV Transformation of Memory B Cells from a Patient Chronically Infected with HIV in the Presence of an Inhibitor of the DNA Damage Response Using the methods of the presently disclosed subject matter, memory B cells from a chronic HIV-1-infected patient were EBV transformed. An increase in the frequency of IgG positive cell clones in the presence of Chk2i II was observed (FIG. 13). It was then determined whether these antibodies would specifically recognize HIV glycoproteins and whether they had biological (e.g. neutralizing) activity. Several potentially HIV-1 neutralizing antibodies were identified during initial screening of the cell culture supernatants. One of these was cloned into a hetero-hybridoma cell line and the IgG mAb was purified (SMB2-2). The mAb bound to HIV-1 gp120 and gp140 proteins (FIG. 14) and captured HIV-1 virions (FIG. 15) and neutralized infection of HIV-1 strains SF162 and MN in vitro (FIG. 16). In preliminary experiments, SMB2-2 neutralized infection of HIV-1 strains SF162 and MN in vitro with an IC50˜10 μg/mL. […]

The subject of experiment [5] is Chk1 and over 30 other serine/threonine kinases. As to conditions: Arienti et al., 2005; cited from earlier work.

As for `O=c1cc(-c2cccc3c2Sc2ccccc2S3)oc(N2CCOCC2)c1` [ATMi], in experiment [1] (2 μM inhibitor), the “increase of EBV-mediated transformation efficiency” value is “approximately 3 fold”. The “increase of EBV-mediated transformation efficiency” value in experiment [1] (5 μM inhibitor) is around 30 fold. For the same molecule, in experiment [2], the “B cell proliferation in the absence of EBV” value was “No effect” and the “B-cell proliferation (CD19+/CFSElo cells of total PBMCs)” value is given as “dose dependent increase”.
In the case of `CC(=O)c1ccc2c(c1)C=C(c1ccc(Oc3ccc(Cl)cc3)cc1)C2` [Chk2i II], the “EBV transformation efficiency (in words)” value in experiment [1] (2 μM and 5 μM vs DMSO) is “dramatic and dose-dependent increase”. Also, in experiment [2], the “B cell proliferation in the absence of EBV” value was “No effect” and the “B-cell proliferation (CD19+/CFSElo cells of total PBMCs)” value was “dose dependent increase”. Further, in experiment [3], the “outgrowth of memory B cells (positive wells)” value is given as “increased the ability of B cells to grow out”. In addition, the “B cell number following CpG stimulation” value in the experiment on CD19+ B cells is “increased”. Also, the “B cell number following CpG system stimulation” value with CD19+ B cells (CpG DNA, anti-Ig, IL-2, IL-10) is reported as “increased”. Also, the “frequency of IgG positive cell clones” value in experiment [4] was “increase”. In experiment [5], the “specificity over Chk1 and over 30 other serine/threonine kinases” value is “exquisite specificity”.
